Values after ≈ are worked out from the molar mass of the structure shown.
Experiments:
[1] = target: T1, E. coli LpxH (Escherichia coli, UniProt P43341); assay: MBP-AaLpxE-coupled LpxH activity assay (malachite green); assay type: biochemical; conditions: read-out: E. coli LpxH enzyme inhibition IC50
T1 construct: His6 (C); made in house; host or cells: E. coli BL21-AI (pET-26b(+), synthetic gene from GenScript)
Protocol: E. coli-optimized EcLpxH and KpLpxH sequences, cloned into a pET-26b(+) vector (Novagene) using NdeI/XhoI restriction sites, were ordered from GenScript Biotech (the Netherlands), giving constructs with a His6-tag at the C-terminal end, and bearing kanamycin resistance. Competent E. coli BL21-AI cells (Invitrogen) were transformed and grown at 37 °C in Luria broth containing 50 μg/mL kanamycin to an OD600 of 0.5 to 1.0, then induced for 2 to 3 h by adding IPTG and L-arabinose to final concentrations of 0.5 mM and of 2 mg/mL, respectively. Harvested cells were lysed in a One-Shot cell disrupter (Constant Systems Ltd., UK) in 20 mM Tris-HCl pH 8.0, 300 mM NaCl, 20 mM imidazole, 4 M urea, 5% (v/v) glycerol, 0.01 mg/mL RNase A and 0.02 mg/mL DNase, plus cOmplete, EDTA-free protease inhibitor cocktail (Roche). Proteins were purified using Ni-nitrilotriacetic acid agarose (Qiagen), HiTrap Heparin HP affinity chromatography (Cytiva), and HiLoad 16/60 Superdex 200 chromatography (Amersham Biosciences). Final samples were concentrated to 15 mg/mL protein and stored in aliquots in 20 mM Tris-HCl (pH 8.0) containing 300 mM NaCl and 2 mM DTT at −80 °C. Assays were performed essentially as described by ref. [26]. Additional assay details are available in SI Appendix.
Cloning, expression and purification of LpxHs. E. coli-optimized EcLpxH and KpLpxH sequences, cloned into a pET-26b(+) vector (Novagene) using NdeI/XhoI restriction sites, were ordered from GenScript Biotech (the Netherlands), giving constructs with a His6-tag at the C-terminal end, and bearing kanamycin resistance. The correctness of the sequences was verified by DNA sequencing. Competent E. coli BL21-AI cells (Invitrogen) were transformed with the resulting plasmids for protein production.
Cultures of 8 L of Luria broth containing 50 μg/mL kanamycin were grown at 37 °C to an OD600 of 0.5-1.0, then induced by adding IPTG to a final concentration of 0.5 mM and L-arabinose to a final concentration of 2 mg/ml. After 2-3 h of incubation at 37 °C, cells were harvested by centrifugation, and the pellet was resuspended in lysis buffer (20 mM Tris-HCl pH 8.0, 300 mM NaCl, 20 mM imidazole, 4 M urea, 5% (v/v) glycerol, 0.01 mg/mL RNase A and 0.02 mg/mL DNase, plus one tablet of cOmplete, EDTA-free cocktail protease inhibitor cocktail (Roche)).
Cells were lysed using a One-Shot cell disrupter (Constant Systems Ltd., UK). The lysate was spun down and the soluble fraction containing LpxH was incubated at 4 °C overnight with 1.5 mL pre-equilibrated Ni-nitrilotriacetic acid agarose (Qiagen) slurry using the same buffer. The column was then washed in steps of 30 column volumes with lysis buffer (without RNase A, DNase and protease inhibitor) containing 3, 2, 1, 0.5 and 0 M of urea. The protein was then eluted with eight column volumes of 500 mM imidazole in the same buffer. Fractions containing the desired protein as judged by SDS gels were pooled and purified on a HiTrap Heparin HP affinity column (Cytiva) (loading buffer 20 mM Tris-HCl, pH 8.0 and 5% glycerol, 2 mM DTT; elution buffer 20 mM Tris-HCl, pH 8.0 and 5% glycerol, 1 M NaCl, 2 mM DTT) and further applied to a HiLoad 16/60 Superdex 200 preparative grade column (Amersham Biosciences) pre-equilibrated with 20 mM Tris-HCl, pH 8.0, 300 mM NaCl, 5% glycerol, 2 mM
DTT. […]
for EcLpxH2 and KpLpxH, respectively, calculated using the ProtParam tool(1) were analyzed by SDS PAGE and stored in 20 mM Tris-HCl (pH 8.0) containing 300 mM NaCl and 2 mM DTT at -80 […]

[2] = tested on: Eco MG1655 ∆tolC (EN243); assay: MIC, efflux-defective parental strain EN243; assay type: cell-based, E. coli; conditions: Escherichia coli, MG1655, read-out: MIC EN243
Protocol: Minimum inhibitory concentration (MIC) values were determined according to the Clinical Laboratory Standards Institute guidelines. Frequency of resistance was determined by plating ~5 × 10^8 bacterial cells on agar-solidified media plates containing test compound at concentrations corresponding to four times the measured solid-media MIC of the strains. Colonies were counted after 24 h, restreaked onto media containing the same concentration of compound, and the MIC remeasured against the assayed compound. Genomic DNA from isolated clones was sequenced by paired-end sequencing on an Illumina MiSeq device. Complete experimental details available in SI Appendix. […]
Minimum inhibitory concentration (MIC) determination. Broth microdilution and agar dilution
MIC assays were conducted according to CLSI guidelines (M07-2012). Appropriate inoculation
suspension density was assessed using a Sensititre Nephelometer with a Sensititre 0.5
McFarland Standard. […]

T1 sequence (P43341 whole entry): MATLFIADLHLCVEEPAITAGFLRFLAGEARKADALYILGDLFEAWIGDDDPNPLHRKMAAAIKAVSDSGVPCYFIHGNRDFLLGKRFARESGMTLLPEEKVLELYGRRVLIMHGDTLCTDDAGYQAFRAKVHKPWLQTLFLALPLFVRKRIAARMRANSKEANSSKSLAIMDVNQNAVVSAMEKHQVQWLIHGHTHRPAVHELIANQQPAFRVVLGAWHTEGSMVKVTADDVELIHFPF

CC(=O)N1CCc2cc(S(=O)(=O)N3CCN(c4cccc(C(F)(F)F)c4)CC3)ccc21 [AZ1, reference compound] gave an IC50 [1] of 520 nM and an MIC [2] of 0.125 µg/mL (≈ 0.276 µM).
In the case of CN(c1ccccc1C(=O)Nc1ccc(S(=O)(=O)N2CCCCC2)cc1)S(C)(=O)=O [JEDI-852], the IC50 [1] is reported as 1300 nM and the MIC [2] is reported as 4 µg/mL (≈ 8.86 µM).
In the case of CN(c1ccc(CNCCN)cc1C(=O)Nc1ccc(S(=O)(=O)N2CCN(c3cc(Cl)cc(Cl)c3)CC2)cc1)S(C)(=O)=O [EBL-3025], the IC50 [1] is reported as 3.4 nM.
CN(c1ccccc1C(=O)Nc1ccc(S(=O)(=O)N2CCN(c3cccc(C(F)(F)F)c3)CC2)cc1)S(C)(=O)=O [JEDI-1444] gave an IC50 [1] of 2.6 nM and an MIC [2] of 0.016 µg/mL (≈ 0.0268 µM).
In the case of Cc1cc(C#N)nc(N2CCN(S(=O)(=O)c3ccc(NC(=O)c4ccccc4N(C)S(C)(=O)=O)cc3)CC2)n1 [EBL-3339], the IC50 [1] is reported as 1.5 nM.

Source: publication PMC11009625, “Antibiotic class with potent in vivo activity targeting lipopolysaccharide synthesis in Gram-negative bacteria” (Proceedings of the National Academy of Sciences of the …, 2024)
